Results: patent US20150306096A1, “8'-HYDROXY-DIHYDROERGOTAMINE COMPOUNDS AND COMPOSITIONS” (MAP Pharmaceuticals, Inc., priority 2012, published 2015)
pEC50: −log10 of the molar value.

How the values were obtained:
[1] = molecular target: T1, human Serotonin 5-HT1B receptor (Homo sapiens, UniProt P28222); assay: GTPγS functional assay; assay type: biochemical; conditions: read-out: Functional activity (agonist)
T1 construct: purchased Euroscreen
Procedure: (§1) Functional profiling of agonist and antagonist activities of 8′-OH DHE on human Adrenergic α1D, Dopamine D2L, and Serotonin 5-HT1B, 5-HT1D, 5-HT1F, 5-HT3, 5-HT4e and 5-HT5A receptors (compared against the parent (DHE) molecule) was carried out as follows.
(§2) The SPA 35S-GTPγS tests were conducted with Euroscreen membrane preparations […]. The HTRF assays were conducted with recombinant cell lines. The receptor accession numbers, cellular background and reference compounds are as reported below in Table 10.
(§3) (3) 8′-OH DHE was tested for agonist and antagonist activity at the human Serotonin 5-HT1B and Serotonin 5-HT1D receptors using GTPγS assay (in triplicate) at the following nanomolar concentrations: […]
(§4) The assay procedure was carried out as follows. […] The plates were then centrifuged for 10 minutes at 2,000 rpm and counted for 1 min/well with a Perkin Elmer TopCount reader.
(§5) Agonist activity of the test compounds was expressed as a percentage of the activity of the reference agonist at its EC100 concentration. Antagonist activity of the test compounds was expressed as a percentage of the inhibition of the reference agonist activity at its EC80 concentration. Dose-response data from the test compounds were analyzed with XLfit (IDBS) software using nonlinear regression applied to a sigmoidal dose-response model and the following equation: […]

[2] = molecular target: T2, human Serotonin 5-HT1D receptor (Homo sapiens, UniProt P28221); assay: GTPγS functional assay; assay type: biochemical; conditions: read-out: Functional activity (agonist)
T2 construct: purchased Euroscreen
T2 sequence (P28221 whole entry): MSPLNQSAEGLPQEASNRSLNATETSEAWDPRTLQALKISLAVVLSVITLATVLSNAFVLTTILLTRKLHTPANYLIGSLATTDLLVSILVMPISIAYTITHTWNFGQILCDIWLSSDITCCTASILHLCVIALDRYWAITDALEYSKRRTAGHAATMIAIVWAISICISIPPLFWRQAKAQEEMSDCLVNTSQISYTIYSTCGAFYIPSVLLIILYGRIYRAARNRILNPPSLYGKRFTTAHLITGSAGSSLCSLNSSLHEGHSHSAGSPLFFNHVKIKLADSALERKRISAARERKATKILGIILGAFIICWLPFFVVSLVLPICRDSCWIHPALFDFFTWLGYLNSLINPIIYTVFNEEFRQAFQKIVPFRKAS
Procedure: as §1, §2, §3, §4, §5

[3] = tested on: NMDA (NR1/NR2A/NR2B/NR2C/NR2D); assay: NMDA receptor Fluo-8 calcium FLIPR assay (agonist/antagonist); assay type: cell-based, human; conditions: NMDA receptors
Procedure: Additional receptor agonist/agonist activity assessments were performed using the 8′-OH DHE test compound. Table 12 contains a summary of the cell lines (CHO-K1/HEK293 transfected with relevant human receptor) and the assays performed to detect any agonist or antagonist activity.
Studies for NMDA receptors (the NR1, NR2A, NR2B, NR2C and NR2D receptors) were conducted to monitor receptor activity of the test 8′-OH DHE compound using the Fluo-8 calcium kit and a Fluorescence Imaging Plate Reader (FLIPR^TETRA™) instrument. The following channels were evaluated: Cloned NMDA receptor (NR1/NR2A) channel (encoded by the GRIN1 and GRIN2A genes, co-expressed in HEK293 cells); Cloned NMDA receptor (NR1/NR2B) channel (encoded by the GRIN1 and GRIN2B genes, co-expressed in HEK293 cells); Cloned NMDA receptor (NR1/NR2C) channel (encoded by the GRIN1 and GRIN2C genes, co-expressed in HEK293 cells); and Cloned NMDA receptor (NR1/NR2D) channel (encoded by the GRIN1 and GRIN2D genes, transiently co-expressed in HEK293 cells).
For the agonist assessment, the effect of the test 8′-OH DHE compound was evaluated in the absence of the positive control agonist. The signal, elicited in the presence of the agonist (100 μM Glutamic acid+20 μM Glycine), was set to 100% activation and the signal in the presence of the vehicle control (Mg^2+-free HB-PS) was set to 0% activation. […]

[4] = tested on: Purinergic (P2X1/P2X2/P2X3/P2X4/P2X7); assay: Purinergic receptor QPatch patch clamp (agonist/antagonist); assay type: cell-based, human; conditions: P2X receptors, 30 and 100 μM
Procedure: Purinergic receptor studies were conducted to monitor activity of 8′-OH DHE against the P2X1, P2X2, P2X3, P2X4 and P2X7 receptors. Human recombinant purinergic receptor-expressing HEK293 cells were used, and receptor activity was evaluated at RT using QPatch HT® (Sophion Bioscience A/S, Denmark) automatic parallel patch clamp system. The test 8′-OH DHE compound was evaluated in both agonist and antagonist modes at 30 and 100 μM. Each concentration was tested in triplicate.

[5] = subcutaneous, 1.5 mM; cited from earlier work

T1 sequence (P28222 whole entry): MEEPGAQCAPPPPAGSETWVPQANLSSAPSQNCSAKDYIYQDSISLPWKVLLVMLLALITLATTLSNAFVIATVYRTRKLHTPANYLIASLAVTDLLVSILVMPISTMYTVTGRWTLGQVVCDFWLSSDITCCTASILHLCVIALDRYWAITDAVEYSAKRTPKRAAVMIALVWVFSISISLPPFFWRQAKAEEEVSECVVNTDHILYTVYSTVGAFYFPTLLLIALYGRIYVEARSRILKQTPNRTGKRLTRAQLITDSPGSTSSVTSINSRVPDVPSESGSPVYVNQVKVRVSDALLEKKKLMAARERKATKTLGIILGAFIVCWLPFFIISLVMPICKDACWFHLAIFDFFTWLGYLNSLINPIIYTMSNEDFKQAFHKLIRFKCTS

Compound | pEC50 [1] | pEC50 [2] | Activity (Agonism: EC50; Antagonism: IC50) [3] | Activity (Agonism: EC50; Antagonism: IC50) [4] | nausea, share of treated patients [5]
CN1C[C@H](C(=O)N[C@]2(C)O[C@@]3(O)[C@@H]4CCC(O)N4C(=O)[C@H](Cc4ccccc4)N3C2=O)C[C@@H]2c3cccc4[nH]cc(c34)C[C@H]21 (some centres unmarked) [8′-OH DHE, 8′-Hydroxy-Dihydroergotamine] | 9.14 | 9.31 | Inactive | Inactive | –
CN1C[C@H](C(=O)N[C@]2(C)O[C@@]3(O)[C@@H]4CCCN4C(=O)[C@H](Cc4ccccc4)N3C2=O)C[C@@H]2c3cccc4[nH]cc(c34)C[C@H]21 [DHE, Dihydroergotamine] | – | – | – | – | ~16%
